Test results taken from BindingDB's records for patent US20230391786 (Eli Lilly, 2023).

Target: Cyclic GMP-AMP synthase (Homo sapiens, UniProt Q8N884)
Test: In Vitro Inhibition Assay
Protocol: In vitro inhibition assay of cGAS activity: Add a 5 μL mixture containing 10 mM Tris-Cl pH 7.5, 50 mM NaCl, 5 mM MgCl2, 1 mM DTT, 0.01% Triton X-100, 60 nM 75-bp dsDNA, […], 50 μM GTP, 10 nM of recombinant human cGAS, and serial dilutions of a test compound in DMSO to a 384-well plate and incubate at room temperature for 3 hours. Quench the reaction by the addition of 100 μL of stop solution containing 0.1% formic acid and 0.1 μM internal standard (3′3′-difluoro cGAMP). Measure the amount of cGAMP produced by RapidFire 365 mass spectrometry and evaluate inhibitory effect of a compound by plotting percent specific inhibition of cGAMP production against log concentration of the test compound.

Cyclic GMP-AMP synthase, sequence (Q8N884 whole entry): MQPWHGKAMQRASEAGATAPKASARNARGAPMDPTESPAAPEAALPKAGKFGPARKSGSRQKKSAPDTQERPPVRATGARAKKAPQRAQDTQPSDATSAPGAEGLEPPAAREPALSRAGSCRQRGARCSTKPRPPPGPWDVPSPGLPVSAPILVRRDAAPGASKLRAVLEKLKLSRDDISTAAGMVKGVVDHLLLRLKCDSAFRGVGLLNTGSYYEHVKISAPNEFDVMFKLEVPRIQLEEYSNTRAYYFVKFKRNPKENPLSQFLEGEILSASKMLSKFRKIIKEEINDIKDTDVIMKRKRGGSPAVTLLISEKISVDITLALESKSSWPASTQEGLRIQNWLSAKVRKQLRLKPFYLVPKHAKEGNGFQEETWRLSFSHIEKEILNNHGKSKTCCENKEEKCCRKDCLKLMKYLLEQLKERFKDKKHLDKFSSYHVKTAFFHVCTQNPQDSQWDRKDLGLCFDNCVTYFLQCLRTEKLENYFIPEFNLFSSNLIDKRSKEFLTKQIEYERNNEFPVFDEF

Compound | IC50
O=C(CCn1cncn1)N1CCn2c(c(-c3cn[nH]c3)c3ccc(Cl)c(Cl)c32)C1 [US20230391786, Example 49] | 83.9 nM
Cn1ncnc1COCC(=O)N1CCn2c(c(-c3cn[nH]c3)c3c(OCC#N)cc(Cl)c(Cl)c32)C1 [US20230391786, Example 181] | 16.5 nM
OCCn1cc(-n2cc(-c3cn[nH]c3)c3ccc(Cl)cc32)nn1 [US20230391786, Example 229] | 96.5 nM
NC1CCn2c1c(-c1cn[nH]c1)c1ccc(Cl)c(Cl)c12 (centres undefined) [US20230391786, Example 241] | 62.5 nM
